# Reference: patent publication US20150174158A1, “[…] NITRIC OXIDE FOR TREATING RESPIRATORY DISEASES” (Advanced Inhalation Therapies (AIT) Ltd., priority 2012, published 2015)
# Read-outs that look alike come from different tables or passages of the source.
# How the values were obtained:
# Klebsiella sp. #1 = settings: 200 ppm gNO; saline; cited from earlier work
# Klebsiella sp. #3 = settings: 200 ppm gNO; saline; cited from earlier work
# [1] = test system: P. aeruginosa and S. aureus; settings: cited from earlier work
# broad range of microbes = settings: gNO at 160-200 ppm; in vitro, ex vivo and in animal models; cited from earlier work
# [2] = test system: influenza A/victoria/H3N2; settings: 160 ppm gNO, cited from earlier work
# [3] = test system: bovine respiratory disease; settings: intermittent gNO; cited from earlier work
# S. aureus (ATCC) = settings: 200 ppm gNO; saline; cited from earlier work
# P. aeruginosa (ATCC) = settings: 200 ppm gNO; saline; cited from earlier work
# [4] = test system: human respiratory syncytial virus (rgRSV30); experiment: RSV plaque assay after 30 min exposure to 160 ppm gNO; assay type: cell-based; settings: single 30 min exposure to 160 ppm gNO; starting 500 PFU
# Protocol: The efficacy of treating viral infection by respiratory syncytial virus by the methods presented herein was tested by exposure for 30 minutes of human respiratory syncytial virus (rgRSV30) to a gas mixture containing 160 ppm nitric oxide, using standard plaque assay as described hereinabove.
# FIGS. 3A-D present the data obtained in the experiment using tissue culture samples harboring human rgRSV30, coupled to a green fluorescent protein, wherein the control experiment the samples were exposed to a ambient air (data not shown), and the tested samples having a starting viral level of 2000 PFU (FIG. 3A), 1000 PFU (FIG. 3B) and 500 PFU (FIG. 3C), were exposed to 160 ppm gNO for 30 minutes, whereas FIG. 3D presents a comparative bar plot comparing the control to test results.
# Enterobacter sp. = settings: 200 ppm gNO; saline; cited from earlier work
# Klebsiella sp. #2 = settings: 200 ppm gNO; saline; cited from earlier work
# [5] = test system: five planktonic species of methicillin resistant S. aureous (MRSA); settings: 1,600 ppm hours of gNO; cited from earlier work
# E. Coli = settings: 200 ppm gNO; saline; cited from earlier work
# [6] = Phase I safety study: pulmonary function tests; assay type: in vivo, human
# Protocol: After obtaining informed consent, treatment was initiated within 5 days of enrollment. Subjects were housed in a hospital ward and received 160 ppm gNO for 30 minutes every four hours (Q4h), five times a day, for five consecutive days by inhalation. Subjects returned for follow-up evaluations 3, 7 and 21 days after the final gNO administration. Subject safety was determined by monitoring vital signs, methemoglobin levels, lung function, blood chemistry, hematology, prothrombin time, inflammatory cytokine/chemokines levels and endothelial activation. These parameters were compared to baseline and at various time-points during and after gNO administration.
# Subjects underwent full pulmonary function tests (PFT), including lung diffusing capacity (DLCO) by a trained technician utilizing a calibrated pulmonary function system (Jaeger MasterScreen, VIASYS Healthcare, USA) on screening and days 2, 8, 12 and 26. Spirometry test (Microloop by Micro Medical, England) was performed on days 1, 3 and 4. Effect of gNO on lung function and DLCO was determined by changes from baseline, treatment days and follow up days. […]
# Acinetobacter sp. = settings: 200 ppm gNO; saline; cited from earlier work
# methemoglobin (MetHb) = settings: healthy humans, cited from earlier work
# Mycobacterium = settings: 200 ppm gNO; saline; cited from earlier work
# S. aureus (Clinical) = settings: 200 ppm gNO; saline; cited from earlier work
# S. maltophilia = settings: 200 ppm gNO; saline; cited from earlier work
# [7] = continuous delivery of 80 ppm; cited from earlier work
# [8] = test system: all microorganisms tested; settings: 200 ppm gNO, cited from earlier work
smiles,measurement,setting,value
"[N]=O [gNO, nitric oxide]",LD100,Klebsiella sp. #1,6 h
same,Latent Period,Klebsiella sp. #1,3 h
same,−2.5 Log10,Klebsiella sp. #1,3.5 hours
same,LD100,Klebsiella sp. #3,6 h
same,Latent Period,Klebsiella sp. #3,3 h
same,−2.5 Log10,Klebsiella sp. #3,5.1 hours
same,survival (downward bactericidal trend),"[1]; 50-160 ppm gNO vs medical air, agar plates",5-10%
same,time required to achieve >90% reduction of colony formation,[1]; gNO greater than 120 ppm,8 to 12 h
same,reduction of colony formation,"[1]; levels of gNO greater than 120 ppm, agar plates",greater than 90%
same,antimicrobial effects,broad range of microbes,potent antimicrobial effects
same,infectivity (plaque formation),[2],capable of reducing the infectivity
same,"anti-viral effect, intermittent vs single exposure",[2]; three 30 minute treatments Q4h vs one 30 minute dose,more evident in the intermittent form of exposure
same,clinical symptoms of bovine respiratory disease,[3],decrease the clinical symptoms
same,LD100,S. aureus (ATCC),4 h
same,Latent Period,S. aureus (ATCC),3 h
same,−2.5 Log10,S. aureus (ATCC),3.3 hours
same,LD100,P. aeruginosa (ATCC),3 h
same,Latent Period,P. aeruginosa (ATCC),1 h
same,−2.5 Log10,P. aeruginosa (ATCC),2.1 hours
same,viral viability,[4],substantially nullified
same,LD100,Enterobacter sp.,6 h
same,Latent Period,Enterobacter sp.,4 h
same,−2.5 Log10,Enterobacter sp.,5.3 hours
same,LD100,Klebsiella sp. #2,5 h
same,Latent Period,Klebsiella sp. #2,2 h
same,−2.5 Log10,Klebsiella sp. #2,4.1 hours
same,population of planktonic MRSA strains,[5],A reduction in the population
same,LD100,E. Coli,5 h
same,Latent Period,E. Coli,3 h
same,−2.5 Log10,E. Coli,4.2 hours
same,"pulmonary function tests, abnormalities",[6]; during and after gNO administration,did not reveal any abnormalities
same,"DLCO, FVC, TLC and RV",[6]; vs baseline,did not change from baseline
same,FEV1 and maximum mid-expiratory flow (MMEF),[6]; vs baseline during the course of the study,did not differ from baseline
same,LD100,Acinetobacter sp.,6 h
same,Latent Period,Acinetobacter sp.,4 h
same,−2.5 Log10,Acinetobacter sp.,5 hours
same,MetHb level,methemoglobin (MetHb); gNO 128 ppm for 3 hours,> 5%
same,MetHb level,methemoglobin (MetHb); gNO 512 ppm for 55 minutes,> 5%
same,LD100,Mycobacterium,10 h
same,Latent Period,Mycobacterium,7 h
same,−2.5 Log10,Mycobacterium,9.2 hours
same,LD100,S. aureus (Clinical),4 h
same,Latent Period,S. aureus (Clinical),3 h
same,−2.5 Log10,S. aureus (Clinical),3.7 hours
same,LD100,S. maltophilia,4 h
same,Latent Period,S. maltophilia,2 h
same,−2.5 Log10,S. maltophilia,2.8 hours
same,NO2 level,[7],2.6 ppm
same,bactericidal effect,[8]; all microorganisms tested,complete bactericidal effect
same,reduction in CFU/mL,[8]; every bacteria challenged,≥ 3 login CFU/mL
